Test results reported in patent US10435399B2, “HDAC6 inhibitory heterocyclic compound” (TAKEDA PHARMACEUTICAL COMPANY LIMITED, priority 2017, dated 2019).

Target: T1, HDAC6 enzyme (Homo sapiens, UniProt Q9UBN7)
T1 construct: transducing full length HDAC6 gene into Sf-9 insect cells; GST; purchased SignalChem; host or cells: Sf-9 insect cells
T1 sequence (Q9UBN7 1-1215): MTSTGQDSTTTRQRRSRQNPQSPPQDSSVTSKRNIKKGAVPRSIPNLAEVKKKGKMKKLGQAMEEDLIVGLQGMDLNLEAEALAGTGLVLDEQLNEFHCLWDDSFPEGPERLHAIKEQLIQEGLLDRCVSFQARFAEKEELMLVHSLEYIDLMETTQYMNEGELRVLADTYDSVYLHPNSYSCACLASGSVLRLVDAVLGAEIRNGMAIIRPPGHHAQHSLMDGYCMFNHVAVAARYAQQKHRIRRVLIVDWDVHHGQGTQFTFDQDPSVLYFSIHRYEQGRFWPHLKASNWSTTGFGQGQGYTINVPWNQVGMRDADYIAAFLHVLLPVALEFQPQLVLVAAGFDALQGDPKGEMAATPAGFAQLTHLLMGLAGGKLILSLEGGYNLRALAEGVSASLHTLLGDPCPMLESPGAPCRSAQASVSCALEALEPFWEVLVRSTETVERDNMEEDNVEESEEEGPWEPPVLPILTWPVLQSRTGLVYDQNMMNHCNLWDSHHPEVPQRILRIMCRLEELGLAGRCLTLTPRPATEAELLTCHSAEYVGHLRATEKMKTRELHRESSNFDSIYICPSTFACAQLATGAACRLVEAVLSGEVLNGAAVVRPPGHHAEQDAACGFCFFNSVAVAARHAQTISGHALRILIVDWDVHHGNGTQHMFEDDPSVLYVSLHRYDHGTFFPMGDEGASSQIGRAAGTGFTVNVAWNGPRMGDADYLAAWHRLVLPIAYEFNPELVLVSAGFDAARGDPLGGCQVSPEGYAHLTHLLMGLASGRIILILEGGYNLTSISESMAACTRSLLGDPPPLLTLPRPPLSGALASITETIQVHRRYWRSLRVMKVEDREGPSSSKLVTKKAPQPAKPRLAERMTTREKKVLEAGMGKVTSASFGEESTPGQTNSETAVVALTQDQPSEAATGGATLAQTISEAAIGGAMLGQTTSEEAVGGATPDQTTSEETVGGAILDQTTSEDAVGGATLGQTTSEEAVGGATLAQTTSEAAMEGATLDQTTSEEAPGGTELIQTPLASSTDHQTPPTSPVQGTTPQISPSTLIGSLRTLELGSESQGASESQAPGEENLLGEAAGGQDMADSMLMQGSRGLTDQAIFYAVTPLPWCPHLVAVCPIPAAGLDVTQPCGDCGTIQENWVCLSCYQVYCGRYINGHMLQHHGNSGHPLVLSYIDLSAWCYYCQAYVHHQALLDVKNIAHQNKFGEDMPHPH
Assay: HDAC6 enzyme inhibitory activity (HDAC-Glo I/II Assay kit)
Format: biochemical
Conditions: 10 μM; wells without enzyme = 100% inhibition; read-out: HDAC6 inhibitory rate (%) (10 μM)
In short: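 Luminescence read-out after 20 min reaction with HDAC-Glo substrate-developer, following 60 min room-temperature preincubation of compound with Sf-9-expressed, GST-purified full-length enzyme. Inhibition is relative to no-enzyme wells set as 100%.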

SMILES	inhibition at 10 µM [%]
O=C(N[C@@H]1CCCC[C@H]1N1Cc2ncc(-c3nnc(C(F)F)o3)cc2C1=O)c1cccc(Cl)c1 [Example 163, 3-chloro-N-((1R,2R)-2-(3-(5-(difluoromethyl)-1,3,4-oxadiazol-2-yl)-5-oxo-5,7-dihydro-6H-pyrrolo[3,4-b]pyridin-6-yl)cyclohexyl)benzamide]	98
O=C(N[C@@H]1CCCC[C@H]1N1Cc2ncc(-c3nnc(C(F)F)o3)cc2C1=O)c1ccccn1 [Example 164, N-((1R,2R)-2-(3-(5-(difluoromethyl)-1,3,4-oxadiazol-2-yl)-5-oxo-5,7-dihydro-6H-pyrrolo[3,4-b]pyridin-6-yl)cyclohexyl)pyridine-2-carboxamide]	99
O=C(N[C@@H]1CCCC[C@H]1N1Cc2c(F)cc(-c3nnc(C(F)F)o3)cc2C1=O)C(F)F [Example 165, N-((1R,2R)-2-(6-(5-(difluoromethyl)-1,3,4-oxadiazol-2-yl)-4-fluoro-1-oxo-1,3-dihydro-2H-isoindol-2-yl)cyclohexyl)-2,2-difluoroacetamide]	99
CCC(=O)N[C@@H]1CCCC[C@H]1N1C(=O)c2ccc(-c3nnc(C(F)F)o3)cc2C1=O [Example 166, N-((1R,2R)-2-(5-(5-(difluoromethyl)-1,3,4-oxadiazol-2-yl)-1,3-dioxo-1,3-dihydro-2H-isoindol-2-yl)cyclohexyl)propanamide]	97
CC(C)(C)OC(=O)N[C@@H]1COCC[C@H]1N1Cc2c(F)cc(-c3nnc(C(F)F)o3)cc2C1=O [Example 167, tert-butyl ((3S,4R)-4-(6-(5-(difluoromethyl)-1,3,4-oxadiazol-2-yl)-4-fluoro-1-oxo-1,3-dihydro-2H-isoindol-2-yl)tetrahydro-2H-pyran-3-yl)carbamate]	100
CC(C)(C)OC(=O)N1CCOC[C@@H]1CN1Cc2c(F)cc(-c3nnc(C(F)F)o3)cc2C1=O [Example 168, tert-butyl (3S)-3-((6-(5-(difluoromethyl)-1,3,4-oxadiazol-2-yl)-4-fluoro-1-oxo-1,3-dihydro-2H-isoindol-2-yl)methyl)morpholine-4-carboxylate]	100
N#Cc1cccc(-c2ccccc2N2Cc3ccc(-c4nnc(C(F)F)o4)cc3C2=O)c1 [Example 169, 2′-(6-(5-(difluoromethyl)-1,3,4-oxadiazol-2-yl)-1-oxo-1,3-dihydro-2H-isoindol-2-yl)biphenyl-3-carbonitrile]	101
COc1cccc(-c2ccccc2N2Cc3ccc(-c4nnc(C(F)F)o4)cc3C2=O)c1 [Example 170, 6-(5-(difluoromethyl)-1,3,4-oxadiazol-2-yl)-2-(3′-methoxybiphenyl-2-yl)isoindolin-1-one]	102
O=C1c2cc(-c3nnc(C(F)F)o3)ccc2CN1c1ccccc1-c1cccc(C(F)(F)F)c1 [Example 171, 6-(5-(difluoromethyl)-1,3,4-oxadiazol-2-yl)-2-(3′-(trifluoromethyl)biphenyl-2-yl)isoindolin-1-one]	101
CS(=O)(=O)c1cccc(-c2ccccc2N2Cc3ccc(-c4nnc(C(F)F)o4)cc3C2=O)c1 [Example 172, 6-(5-(difluoromethyl)-1,3,4-oxadiazol-2-yl)-2-(3′-(methylsulfonyl)biphenyl-2-yl)isoindolin-1-one]	100
N[C@@H]1CCCC[C@H]1N1Cc2c(F)cc(-c3nnc(C(F)F)o3)cc2C1=O [Example 173, 2-((1R,2R)-2-aminocyclohexyl)-6-(5-(difluoromethyl)-1,3,4-oxadiazol-2-yl)-4-fluoroisoindolin-1-one]	91
O=C1c2cc(-c3nnc(C(F)F)o3)cc(F)c2CN1[C@@H]1COCC[C@H]1NC(=O)C(F)(F)C(F)(F)F [Example 174, N-((3S,4R)-3-(6-(5-(difluoromethyl)-1,3,4-oxadiazol-2-yl)-4-fluoro-1-oxo-1,3-dihydro-2H-isoindol-2-yl)tetrahydro-2H-pyran-4-yl)-2,2,3,3,3-pentafluoropropanamide]	102
CC(C)(C(=O)N[C@@H]1CCOC[C@H]1N1Cc2c(F)cc(-c3nnc(C(F)F)o3)cc2C1=O)C(F)(F)F [Example 175, N-((3S,4R)-3-(6-(5-(difluoromethyl)-1,3,4-oxadiazol-2-yl)-4-fluoro-1-oxo-1,3-dihydro-2H-isoindol-2-yl)tetrahydro-2H-pyran-4-yl)-3,3,3-trifluoro-2,2-dimethylpropanamide]	100
O=C1c2cc(-c3nnc(C(F)F)o3)cc(F)c2CN1[C@@H]1COCC[C@H]1NC(=O)C1(C(F)(F)F)CC1 [Example 176, N-((3S,4R)-3-(6-(5-(difluoromethyl)-1,3,4-oxadiazol-2-yl)-4-fluoro-1-oxo-1,3-dihydro-2H-isoindol-2-yl)tetrahydro-2H-pyran-4-yl)-1-(trifluoromethyl)cyclopropanecarboxamide]	100
O=C1CCCN1[C@@H]1CCCC[C@H]1N1Cc2ncc(-c3nnc(C(F)F)o3)cc2C1=O [Example 177, 3-(5-(difluoromethyl)-1,3,4-oxadiazol-2-yl)-6-((1R,2R)-2-(2-oxopyrrolidin-1-yl)cyclohexyl)-6,7-dihydro-5H-pyrrolo[3,4-b]pyridin-5-one]	97
CC1(C)OB(c2ccccc2N2Cc3ccc(-c4nnc(C(F)F)o4)cc3C2=O)OC1(C)C [Example 178, 6-(5-(difluoromethyl)-1,3,4-oxadiazol-2-yl)-2-(2-(4,4,5,5-tetramethyl-1,3,2-dioxaborolan-2-yl)phenyl)isoindolin-1-one]	41
O=C1c2ccccc2CN1[C@@H]1CCCC[C@H]1N1Cc2ncc(-c3nnc(C(F)F)o3)cc2C1=O [Example 179, 3-(5-(difluoromethyl)-1,3,4-oxadiazol-2-yl)-6-((1R,2R)-2-(1-oxo-1,3-dihydro-2H-isoindol-2-yl)cyclohexyl)-6,7-dihydro-5H-pyrrolo[3,4-b]pyridin-5-one]	100
O=C(N[C@@H]1CCOC[C@H]1N1Cc2c(F)cc(-c3nnc(C(F)F)o3)cc2C1=O)c1ccccc1Cl [Example 180, 2-chloro-N-((3S,4R)-3-(6-(5-(difluoromethyl)-1,3,4-oxadiazol-2-yl)-4-fluoro-1-oxo-1,3-dihydro-2H-isoindol-2-yl)tetrahydro-2H-pyran-4-yl)benzamide]	100
O=C(N[C@@H]1CCOC[C@H]1N1Cc2c(F)cc(-c3nnc(C(F)F)o3)cc2C1=O)c1cccc(Cl)c1 [Example 181, 3-chloro-N-((3S,4R)-3-(6-(5-(difluoromethyl)-1,3,4-oxadiazol-2-yl)-4-fluoro-1-oxo-1,3-dihydro-2H-isoindol-2-yl)tetrahydro-2H-pyran-4-yl)benzamide]	97
CCC(=O)N[C@@H]1CCCC[C@H]1N1Cc2c(F)cc(-c3nnc(C(F)F)o3)cc2C1=O [Example 182, N-((1R,2R)-2-(6-(5-(difluoromethyl)-1,3,4-oxadiazol-2-yl)-4-fluoro-1-oxo-1,3-dihydro-2H-isoindol-2-yl)cyclohexyl)propanamide]	99
O=C1c2cc(-c3nnc(C(F)F)o3)cc(F)c2CN1[C@@H]1CCCC[C@H]1NC(=O)C(F)(F)F [Example 183, N-((1R,2R)-2-(6-(5-(difluoromethyl)-1,3,4-oxadiazol-2-yl)-4-fluoro-1-oxo-1,3-dihydro-2H-isoindol-2-yl)cyclohexyl)-2,2,2-trifluoroacetamide]	99
CC(F)(F)C(=O)N[C@@H]1CCCC[C@H]1N1Cc2c(F)cc(-c3nnc(C(F)F)o3)cc2C1=O [Example 184, N-((1R,2R)-2-(6-(5-(difluoromethyl)-1,3,4-oxadiazol-2-yl)-4-fluoro-1-oxo-1,3-dihydro-2H-isoindol-2-yl)cyclohexyl)-2,2-difluoropropanamide]	102
O=C(N[C@@H]1CCCC[C@H]1N1Cc2c(F)cc(-c3nnc(C(F)F)o3)cc2C1=O)[C@@H]1CC1(F)F [Example 185, (1S)-N-((1R,2R)-2-(6-(5-(difluoromethyl)-1,3,4-oxadiazol-2-yl)-4-fluoro-1-oxo-1,3-dihydro-2H-isoindol-2-yl)cyclohexyl)-2,2-difluorocyclopropanecarboxamide]	100
